Literature values, collected in patent US6808938B2, “Method and apparatus for assaying a drug candidate to estimate a pharmacokinetic parameter associated therewith” (Biacore AB, priority 1999, dated 2004).

Conditions: stated to explain lack of correlation at 500 μM in FIG. 7

Solubility: < 500 µM
SMILES: CN1C(C(=O)Nc2ccccn2)=C(O)c2ccccc2S1(=O)=O [Piroxicam]
